From US20260242351A1, “LZK INHIBITORS” (Uereka Biosciences, Inc., priority 2023, published 2026)
Structures can show the parent of a compound that is named as a salt.

Tests used:
LZK = biological target: T1, LZK (Homo sapiens, UniProt O43283); experiment: LZK and DLK Inhibition Assay (competition binding to liganded affinity beads, qPCR readout): LZK; conditions: kinase produced in HEK-293 cells, 11-point 3-fold dilution series
T1 construct: made in house; host or cells: HEK-293 cells
T1 sequence (O43283 1-966): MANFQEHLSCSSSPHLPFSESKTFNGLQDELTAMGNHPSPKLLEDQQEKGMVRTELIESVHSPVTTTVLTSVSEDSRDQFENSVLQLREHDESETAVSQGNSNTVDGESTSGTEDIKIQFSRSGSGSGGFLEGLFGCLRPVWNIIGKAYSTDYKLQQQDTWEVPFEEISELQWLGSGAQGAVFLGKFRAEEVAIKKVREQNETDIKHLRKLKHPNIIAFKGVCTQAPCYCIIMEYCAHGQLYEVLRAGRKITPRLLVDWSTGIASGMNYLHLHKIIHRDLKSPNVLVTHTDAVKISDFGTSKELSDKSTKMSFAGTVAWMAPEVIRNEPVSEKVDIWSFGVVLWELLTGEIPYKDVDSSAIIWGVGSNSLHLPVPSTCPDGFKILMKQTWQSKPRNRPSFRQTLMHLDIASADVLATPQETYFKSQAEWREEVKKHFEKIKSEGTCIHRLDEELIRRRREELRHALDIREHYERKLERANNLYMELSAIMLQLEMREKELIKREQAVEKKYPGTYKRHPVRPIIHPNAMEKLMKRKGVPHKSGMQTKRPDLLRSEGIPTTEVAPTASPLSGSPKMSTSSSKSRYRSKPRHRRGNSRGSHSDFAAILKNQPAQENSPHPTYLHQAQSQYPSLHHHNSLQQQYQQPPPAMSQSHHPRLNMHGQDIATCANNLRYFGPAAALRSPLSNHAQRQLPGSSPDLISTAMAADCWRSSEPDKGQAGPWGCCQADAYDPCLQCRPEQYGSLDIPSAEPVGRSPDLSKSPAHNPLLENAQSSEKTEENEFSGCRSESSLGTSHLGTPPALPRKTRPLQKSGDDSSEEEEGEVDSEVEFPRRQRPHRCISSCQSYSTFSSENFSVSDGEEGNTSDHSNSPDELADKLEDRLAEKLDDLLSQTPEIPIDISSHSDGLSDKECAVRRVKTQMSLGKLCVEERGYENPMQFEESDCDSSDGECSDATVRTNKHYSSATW
Description: (§1) The kinases were produced in HEK-293 cells and subsequently tagged with DNA for qPCR detection. Streptavidin-coated magnetic beads were treated with biotinylated small molecule ligands for 30 minutes at room temperature to generate affinity resins for the kinase assays. The liganded beads were blocked with excess biotin and washed with blocking buffer (SeaBlock (Pierce), 1% BSA, 0.05% Tween 20, 1 mM DTT) to remove unbound ligand and to reduce non-specific binding. Binding reactions were assembled by combining LZK and DLK kinases, liganded affinity beads, and test compounds in 1× binding buffer (20% SeaBlock, 0.17×PBS, 0.05% Tween 20, 6 mM DTT). Test compounds were prepared as 111× stocks in 100% DMSO. Kds were determined using an 11-point 3-fold compound dilution series with three DMSO control points. All compounds for Kd measurements are distributed by acoustic transfer (non-contact dispensing) in 100% DMSO. The compounds were then diluted directly into the assays such that the final concentration of DMSO was 0.9%. All reactions performed in polypropylene 384-well plate. Each was a final volume of 0.02 mL. The assay plates were incubated at room temperature with shaking for 1 hour and the affinity beads were washed with wash buffer (lx PBS, 0.05% Tween 20). The beads were then re-suspended in elution buffer (1×PBS, 0.05% Tween 20, 0.5 μM nonbiotinylated affinity ligand) and incubated at room temperature with shaking for 30 minutes. The kinase concentration in the eluates was measured by qPCR.

DLK = biological target: T2, DLK (Homo sapiens, UniProt Q12852); experiment: LZK and DLK Inhibition Assay (competition binding to liganded affinity beads, qPCR readout): DLK; conditions: kinase produced in HEK-293 cells, 11-point 3-fold dilution series
T2 construct: made in house; host or cells: HEK-293 cells
T2 sequence (Q12852 1-859): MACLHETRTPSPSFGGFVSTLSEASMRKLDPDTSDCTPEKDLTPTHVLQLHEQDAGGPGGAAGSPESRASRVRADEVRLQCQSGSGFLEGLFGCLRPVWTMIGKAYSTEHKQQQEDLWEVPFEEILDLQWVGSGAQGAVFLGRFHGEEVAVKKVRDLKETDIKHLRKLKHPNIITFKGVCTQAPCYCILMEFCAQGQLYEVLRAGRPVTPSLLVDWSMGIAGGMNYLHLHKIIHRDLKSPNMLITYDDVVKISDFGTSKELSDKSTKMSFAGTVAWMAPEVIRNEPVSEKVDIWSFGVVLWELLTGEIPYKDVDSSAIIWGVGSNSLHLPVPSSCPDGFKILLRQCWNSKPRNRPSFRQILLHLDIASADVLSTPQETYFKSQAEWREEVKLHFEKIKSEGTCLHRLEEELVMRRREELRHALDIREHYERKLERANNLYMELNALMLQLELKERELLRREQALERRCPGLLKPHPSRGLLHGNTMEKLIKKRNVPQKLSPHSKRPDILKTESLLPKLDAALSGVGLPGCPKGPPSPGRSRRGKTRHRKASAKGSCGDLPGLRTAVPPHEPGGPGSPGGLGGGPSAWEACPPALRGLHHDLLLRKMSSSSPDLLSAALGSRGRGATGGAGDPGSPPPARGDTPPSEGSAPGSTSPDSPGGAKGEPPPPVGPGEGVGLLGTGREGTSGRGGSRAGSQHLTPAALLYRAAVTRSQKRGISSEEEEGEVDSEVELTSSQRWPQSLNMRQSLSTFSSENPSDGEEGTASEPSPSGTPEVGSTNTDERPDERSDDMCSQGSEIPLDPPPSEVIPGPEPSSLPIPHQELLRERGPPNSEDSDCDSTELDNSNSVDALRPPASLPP
Description: as §1

Row | Structure (SMILES) | IC50 (LZK) [µM] | IC50 (DLK) [µM]
1 | Fc1c(C2CCN(CC3CC3)CC2)cc(Nc2cnc(C3CC3)cn2)nc1N1CC2CC2C1 (stereo not shown) [Compound 1, N-(6-(3-Azabicyclo[3.1.0]hexan-3-yl)-4-(1-(cyclopropylmethyl)piperidin-4-yl)-5-fluoropyridin-2-yl)-5-cyclopropylpyrazin-2-amine] | ≤ 0.1 | ≤ 0.1
2 | Fc1c(C2CCN(CC3CC3)CC2)cc(N2CC3CC3C2)nc1Nc1cnc(C2CC2)cn1 (stereo not shown) [Compound 2, N-(6-(3-Azabicyclo[3.1.0]hexan-3-yl)-4-(1-(cyclopropylmethyl)piperidin-4-yl)-3-fluoropyridin-2-yl)-5-cyclopropylpyrazin-2-amine] | 0.1 to 1 | ≤ 0.1
3 | Clc1c(C2CCN(CC3CC3)CC2)cc(Nc2cnc(C3CC3)cn2)nc1N1CC2CC2C1 (stereo not shown) [Compound 7, N-(6-(3-Azabicyclo[3.1.0]hexan-3-yl)-5-chloro-4-(1-(cyclopropylmethyl)piperidin-4-yl)pyridin-2-yl)-5-cyclopropylpyrazin-2-amine TFA salt] | 1 to 10 | 1 to 10
4 | N#Cc1c(C2CCN(CC3CC3)CC2)cc(Nc2cnc(C3CC3)cn2)nc1N1CC2CC2C1 (stereo not shown) [Compound 8, 2-(3-Azabicyclo[3.1.0]hexan-3-yl)-4-(1-(cyclopropylmethyl)piperidin-4-yl)-6-((5-cyclopropylpyrazin-2-yl)amino)nicotinonitrile formic acid salt] | ≤ 0.1 | ≤ 0.1
5 | Nc1c(C2CCN(CC3CC3)CC2)cc(Nc2cnc(C3CC3)cn2)nc1N1CC2CC2C1 (stereo not shown) [Compound 9, 6-(3-azabicyclo[3.1.0]hexan-3-yl)-4-(1-(cyclopropylmethyl)piperidin-4-yl)-N2-(5-cyclopropylpyrazin-2-yl)pyridine-2,5-diamine 2,2,2-trifluoroacetate] | ≤ 0.1 | ≤ 0.1
6 | Fc1c(N2CCNCC2)cc(Nc2cnc(C3CC3)cn2)nc1N1CCOCC1 [Compound 10, 5-Cyclopropyl-N-(5-fluoro-6-morpholino-4-(piperazin-1-yl)pyridin-2-yl)pyrazin-2-amine] | ≤ 0.1 | –

Results, then the compound that gave them:

Row | IC50 (LZK) [µM] | IC50 (DLK) [µM] | Structure (SMILES)
7 | 0.1 to 1 | 0.1 to 1 | Fc1c(N2CCNCC2)cc(Nc2ccc(C(F)F)cn2)nc1N1CCOCC1 [Compound 3, N-(5-(Difluoromethyl)pyridin-2-yl)-5-fluoro-6-morpholino-4-(piperazin-1-yl)pyridin-2-amine di-TFA salt]
8 | 1 to 10 | 1 to 10 | Fc1c(N2CC3CC2CN3)cc(Nc2ccc(C(F)F)cn2)nc1N1CCOCC1 (stereo not shown) [Compound 4, 4-(2,5-Diazabicyclo[2.2.1]heptan-2-yl)-N-(5-(difluoromethyl)pyridin-2-yl)-5-fluoro-6-morpholinopyridin-2-amine di-TFA salt]
9 | 0.1 to 1 | 1 to 10 | Fc1c(N2CCNCC2)cc(Nc2ccc(C(F)(F)F)cn2)nc1N1CCOCC1 [Compound 5, 5-Fluoro-6-morpholino-4-(piperazin-1-yl)-N-(5-(trifluoromethyl)pyridin-2-yl)pyridin-2-amine]
10 | 1 to 10 | 1 to 10 | Fc1c(N2CC3CC2CN3)cc(Nc2ccc(C(F)(F)F)cn2)nc1N1CCOCC1 (stereo not shown) [Compound 6, 4-(2,5-Diazabicyclo[2.2.1]heptan-2-yl)-5-fluoro-6-morpholino-N-(5-(trifluoromethyl)pyridin-2-yl)pyridin-2-amine]
